In US20220142164A1, “HERBICIDAL COMPOUNDS” (SYNGENTA CROP PROTECTION AG, priority 2019, published 2022):

Columns and labels:
Test in all cases: Post-emergence efficacy, glasshouse pot test
Assay type in all cases: in vivo
Details in all cases: 312 h, post-emergence spray, Application Rate 500 g/Ha, evaluated after 13 days, 100=total damage to plant, 0=no damage to plant
[1] = system: Amaranthus palmeri (AMAPA)
Description: (§1) Seeds of a variety of test species were sown in standard soil in pots. After cultivation for 14 days (post-emergence) under controlled conditions in a glasshouse (at 24/16° C., day/night; 14 hours light; 65% humidity), the plants were sprayed with an aqueous spray solution derived from the dissolution of the technical active ingredient formula (I) in a small amount of acetone and a special solvent and emulsifier mixture referred to as IF50 (11.12% Emulsogen EL360 TM+44.44% N-methylpyrrolidone+44.44% Dowanol DPM glycol ether), to create a 50 g/I solution which was then diluted to required concentration using 0.25% or 1% Empicol ESC70 (Sodium lauryl ether sulphate)+1% ammonium sulphate as diluent. The test plants were then grown in a glasshouse under controlled conditions (at 24/16° C., day/night; 14 hours light; 65% humidity) and watered twice daily. After 13 days the test was evaluated (100=total damage to plant; 0=no damage to plant). Ipomoea hederacea (IPOHE), Euphorbia heterophylla (EPHHL), Chenopodium album (CHEAL), Amaranthus palmeri (AMAPA), Lolium perenne (LOLPE), Digitaria sanguinalis (DIGSA), Eleusine indica (ELEIN), Echinochloa crus-galli (ECHCG), Setaria faberi (SETFA)

[2] = system: Chenopodium album (CHEAL)
Description: as §1

[3] = system: Digitaria sanguinalis (DIGSA)
Description: as §1

[4] = system: Echinochloa crus-galli (ECHCG)
Description: as §1

Eleusine indica (ELEIN) = system: Eleusine indica (ELEIN)
Description: as §1

[5] = system: Euphorbia heterophylla (EPHHL)
Description: as §1

[6] = system: Ipomoea hederacea (IPOHE)
Description: as §1

Lolium perenne (LOLPE) = system: Lolium perenne (LOLPE)
Description: as §1

Setaria faberi (SETFA) = system: Setaria faberi (SETFA)
Description: as §1

| SMILES | pest or weed control at 500 g/ha [1] [%] | pest or weed control at 500 g/ha [2] [%] | pest or weed control at 500 g/ha [3] [%] | pest or weed control at 500 g/ha [4] [%] | pest or weed control at 500 g/ha (Eleusine indica (ELEIN)) [%] | pest or weed control at 500 g/ha [5] [%] | pest or weed control at 500 g/ha [6] [%] | pest or weed control at 500 g/ha (Lolium perenne (LOLPE)) [%] | pest or weed control at 500 g/ha (Setaria faberi (SETFA)) [%] |
| --- | --- | --- | --- | --- | --- | --- | --- | --- | --- |
| O=C(O)CCS(=O)(=O)C[n+]1ccc(-c2ncns2)cc1 [Compound A18, 3-[[4-(1,2,4-thiadiazol-5-yl)pyridin-1-ium-1-yl]methylsulfonyl]propanoic acid 2,2,2-trifluoroacetate] | 100 | 90 | 100 | 90 | 100 | 60 | 70 | 40 | 100 |
| O=C(C[n+]1ccc(-c2ncns2)cc1)NC1(C(=O)O)CC1 [Compound A16] | 100 | 90 | 80 | 90 | 40 | 90 | 50 | 50 | 100 |
| O=C(O)CNC(=O)CC[n+]1ccc(-c2ncns2)cc1 [Compound A13] | 100 | 30 | 70 | 50 | 70 | 60 | 20 | 40 | 80 |
| O=C(C[n+]1ccc(-c2ncns2)cc1)NCCS(=O)(=O)[O-] [Compound A9, 2-[[2-[4-(1,2,4-thiadiazol-5-yl)pyridin-1-ium-1-yl]acetyl]amino]ethanesulfonate] | 90 | 70 | 30 | 30 | 50 | 90 | 60 | 30 | 60 |
| O=C(O)CCSC[n+]1ccc(-c2ncns2)cc1 [Compound A15, 3-[[4-(1,2,4-thiadiazol-5-yl)pyridin-1-ium-1-yl]methylsulfanyl]propanoic acid chloride] | 100 | 90 | 100 | 100 | 90 | 40 | 40 | 50 | 100 |
| O=C(O)CCNC(=O)C[n+]1ccc(-c2ncns2)cc1 [Compound A4, 3-[[2-[4-(1,2,4-thiadiazol-5-yl)pyridin-1-ium-1-yl]acetyl]amino]propanoic Acid Chloride] | 90 | 90 | 100 | 70 | 100 | 90 | 90 | 90 | 70 |
| COC(=O)CNC(=O)C[n+]1ccc(-c2ncns2)cc1 [Compound A5, methyl 2-[[2-[4-(1,2,4-thiadiazol-5-yl)pyridin-1-ium-1-yl]acetyl]amino]acetate bromide] | 90 | 90 | 100 | 90 | 100 | 80 | 80 | 30 | 60 |
| O=C(O)CNC(=O)C[n+]1ccc(-c2ncns2)cc1 [Compound A3, 2-[[2-[4-(1,2,4-thiadiazol-5-yl)pyridin-1-ium-1-yl]acetyl]amino]acetic acid chloride] | 90 | 90 | 100 | 100 | 100 | 100 | 100 | 70 | 100 |
| CC(C)(NC(=O)C[n+]1ccc(-c2ncns2)cc1)C(=O)O [Compound A17] | 100 | 50 | 80 | 60 | 60 | 70 | 40 | 30 | 80 |
| O=C(CC[n+]1ccc(-c2ncns2)cc1)NCS(=O)(=O)[O-] [Compound A14, [3-[4-(1,2,4-thiadiazol-5-yl)pyridin-1-ium-1-yl]propanoylamino]methanesulfonate] | 100 | 90 | 100 | 70 | 60 | 20 | 30 | 10 | 70 |
| O=C(O)CS(=O)(=O)C[n+]1ccc(-c2ncns2)cc1 [Compound A19] | 40 | 50 | 30 | 30 | 30 | 30 | 10 | 20 | 20 |
| CN(CCS(=O)(=O)[O-])C(=O)C[n+]1ccc(-c2ncns2)cc1 [Compound A10] | 90 | 20 | 40 | 30 | 40 | 80 | 50 | 20 | 50 |
| COC(=O)C(C)NC(=O)C[n+]1ccc(-c2ncns2)cc1 (stereo not drawn) [Compound A8] | 100 | 90 | 100 | 100 | 100 | 100 | 100 | 60 | 100 |
| CN(CC(=O)O)C(=O)C[n+]1ccc(-c2ncns2)cc1 [Compound A6] | 100 | 90 | 90 | 60 | 20 | 90 | 40 | 40 | 40 |
| CC(NC(=O)C[n+]1ccc(-c2ncns2)cc1)C(=O)O (stereo not drawn) [Compound A7] | 100 | 90 | 100 | 100 | 100 | 100 | 100 | 80 | 100 |
| COC(=O)CCNC(=O)C[n+]1ccc(-c2ncns2)cc1 [Compound A2, methyl 3-[[-2-[4-(1,2,4-thiadiazol-5-yl)pyridin-1-ium-1-yl]acetyl]amino]propanoate bromide] | 80 | 90 | 40 | 20 | 30 | 40 | 50 | 10 | 50 |
| COC(=O)CN(C)C(=O)C[n+]1ccc(-c2ncns2)cc1 [Compound A1] | 0 | 10 | 0 | 0 | 10 | 10 | 10 | 10 | 0 |
